Results from the supplement of paper PMC7017272.
± gives the standard deviation of the averaged measurements.

Columns and labels:
Details in all cases: treatment time: 3 days
UT-SCC-24A = assay: relative IC50 (midpoint of the fitted curve; maximal inhibition may be below 50%); higher = less potent
Description: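 HNSCC cell lines (500 cells/well, 384-well) were cultured on plastic, on top of (2D) or embedded (3D) in Matrigel or human leiomyoma matrix Myogel (500 ug/mL; Myogel 3D mixed with rat collagen I). Cells were treated for 3 days with 5 ten-fold concentrations of each drug, and viability was read by CellTiter-Glo. Viability was normalised to DMSO (0% inhibition) and 100 uM benzethonium chloride (100% inhibition) controls and fitted with the FIMM DSRT pipeline to give IC50 (nM), maximal % inhibition and the drug sensitivity score (DSS). Suffixes _1/_2/_3 on drug names are replicates.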

UT-SCC-8 [1] = assay: relative IC50 (midpoint of the fitted curve; maximal inhibition may be below 50%); higher = less potent
Outline: (§1)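 Using 384-well plates, 500 cells/well of HPV-negative HNSCC cell lines were grown on plastic, on 500 µg/mL Matrigel or Myogel coatings, or embedded in Matrigel or Myogel with rat collagen I. They were treated with compounds at five 10-fold concentrations for 3 days, and luminescence from CellTiter-Glo 2.0 was normalised to vehicle (0.1% DMSO) and cell-killing control wells. IC50, maximal inhibition and drug sensitivity score were derived from percent-inhibition dose–response curves in the FIMM pipeline.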

UT-SCC-14 = assay: as above
Outline: as §1

UT-SCC-28 = assay: as above
Outline: as §1

UT-SCC-81 [2] = assay: as above
Outline: as §1

UT-SCC-106A = assay: as above
Outline: as §1

UT-SCC-44 [3] = assay: as above
Outline: as §1

UT-SCC-42B [4] = assay: as above
Outline: as §1

UT-SCC-73 [5] = assay: as above
Outline: as §1

UT-SCC-24B [6] = assay: as above
Outline: as §1

UT-SCC-40 [7] = assay: as above
Outline: as §1

UT-SCC-42A [8] = assay: as above
Outline: as §1

UT-SCC-8 [9] = assay: maximal % inhibition of viability relative to DMSO; higher = stronger effect
Description: (§2)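 HNSCC cell lines (500 cells/well, 384-well) were cultured on plastic, on top of (2D) or embedded (3D) in Matrigel or human leiomyoma matrix Myogel (500 ug/mL; Myogel 3D mixed with rat collagen I). Cells were treated for 3 days with 5 ten-fold concentrations of each drug, and viability was read by CellTiter-Glo. Viability was normalised to DMSO and benzethonium chloride controls and fitted with the FIMM DSRT pipeline to give IC50 (nM), maximal % inhibition and DSS. Suffixes _1/_2/_3 are replicates. Only inhibition-mode (IC50) fits are kept.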

UT-SCC-81 [10] = assay: as above
Description: as §2

UT-SCC-44 [11] = assay: as above
Description: as §2

UT-SCC-42B [12] = assay: as above
Description: as §2

UT-SCC-73 [13] = assay: as above
Description: as §2

UT-SCC-24B [14] = assay: as above
Description: as §2

UT-SCC-40 [15] = assay: as above
Description: as §2

UT-SCC-42A [16] = assay: as above
Description: as §2

[17] = culture condition: on top of Matrigel
[18] = culture condition: on top of Myogel
[19] = culture condition: plastic 2D (no matrix)
[20] = culture condition: embedded in Matrigel
[21] = culture condition: embedded in Myogel + collagen I

Q: Which “relative IC50” value (UT-SCC-24A; [17]) does the source give for Cn1c(=O)n(-c2ccc(C(C)(C)C#N)cc2)c2c3cc(-c4cnc5ccccc5c4)ccc3ncc21 [Dactolisib] here?
A: > 989 nM

Q: What about the “relative IC50” value (UT-SCC-24A; [18]) of the same compound?
A: > 989 nM

Q: And the “relative IC50” value (UT-SCC-24A; [19])?
A: > 989 nM

Q: And the “relative IC50” value (UT-SCC-8 [1]; [20])?
A: > 989 nM

Q: And the “relative IC50” value (UT-SCC-8 [1]; [19])?
A: > 989 nM

Q: What about the “relative IC50” value (UT-SCC-14; [21]) of the same compound?
A: > 989 nM

Q: What about the “relative IC50” value (UT-SCC-14; [18]) of the same compound?
A: > 989 nM

Q: What about the “relative IC50” value (UT-SCC-28; [20]) of the same compound?
A: > 989 nM

Q: And the “relative IC50” value (UT-SCC-28; [19])?
A: > 989 nM

Q: And the “relative IC50” value (UT-SCC-81 [2]; [21])?
A: > 989 nM

Q: And the “relative IC50” value (UT-SCC-81 [2]; [18])?
A: > 989 nM

Q: And the “relative IC50” value (UT-SCC-81 [2]; [19])?
A: > 989 nM

Q: What about the “relative IC50” value (UT-SCC-106A; [20]) of the same compound?
A: > 989 nM

Q: And the “relative IC50” value (UT-SCC-106A; [17])?
A: > 989 nM

Q: And the “relative IC50” value (UT-SCC-106A; [18])?
A: > 989 nM

Q: What about the “relative IC50” value (UT-SCC-44 [3]; [20]) of the same compound?
A: > 989 nM

Q: And the “relative IC50” value (UT-SCC-44 [3]; [21])?
A: > 989 nM

Q: And the “relative IC50” value (UT-SCC-42B [4]; [20])?
A: > 989 nM

Q: And the “relative IC50” value (UT-SCC-42B [4]; [17])?
A: > 989 nM

Q: And the “relative IC50” value (UT-SCC-42B [4]; [18])?
A: > 989 nM

Q: And the “relative IC50” value (UT-SCC-42B [4]; [19])?
A: > 989 nM

Q: And the “relative IC50” value (UT-SCC-73 [5]; [21])?
A: > 989 nM

Q: And the “relative IC50” value (UT-SCC-73 [5]; [18])?
A: > 989 nM

Q: What about the “relative IC50” value (UT-SCC-73 [5]; [19]) of the same compound?
A: > 989 nM

Q: What about the “relative IC50” value (UT-SCC-24B [6]; [20]) of the same compound?
A: 55.5 nM

Q: What about the “relative IC50” value (UT-SCC-24B [6]; [21]) of the same compound?
A: 22.1 nM

Q: And the “relative IC50” value (UT-SCC-24B [6]; [17])?
A: 33.4 nM

Q: What about the “relative IC50” value (UT-SCC-24B [6]; [18]) of the same compound?
A: 31.3 nM

Q: And the “relative IC50” value (UT-SCC-24B [6]; [19])?
A: 34.7 nM

Q: And the “relative IC50” value (UT-SCC-40 [7]; [18])?
A: > 989 nM

Q: And the “relative IC50” value (UT-SCC-40 [7]; [19])?
A: > 989 nM

Q: What about the “relative IC50” value (UT-SCC-42A [8]; [20]) of the same compound?
A: > 989 nM

Q: And the “relative IC50” value (UT-SCC-42A [8]; [21])?
A: > 989 nM

Q: What about the “relative IC50” value (UT-SCC-42A [8]; [17]) of the same compound?
A: > 989 nM

Q: What about the “relative IC50” value (UT-SCC-42A [8]; [18]) of the same compound?
A: > 989 nM

Q: And the “relative IC50” value (UT-SCC-42A [8]; [19])?
A: > 989 nM

Q: What about the “maximal % inhibition of viability” value (UT-SCC-8 [9]; [20]) of the same compound?
A: 8.63 ± 5.4%

Q: And the “maximal % inhibition of viability” value (UT-SCC-8 [9]; [21])?
A: 18.3 ± 10%

Q: And the “maximal % inhibition of viability” value (UT-SCC-8 [9]; [17])?
A: 13.2 ± 5.7%

Q: What about the “maximal % inhibition of viability” value (UT-SCC-8 [9]; [18]) of the same compound?
A: 9.7 ± 6.6%

Q: And the “maximal % inhibition of viability” value (UT-SCC-8 [9]; [19])?
A: 6.9 ± 6.6%

Q: And the “maximal % inhibition of viability” value (UT-SCC-81 [10]; [20])?
A: 40.7 ± 33%

Q: What about the “maximal % inhibition of viability” value (UT-SCC-81 [10]; [21]) of the same compound?
A: 7.33 ± 3.7%

Q: What about the “maximal % inhibition of viability” value (UT-SCC-81 [10]; [17]) of the same compound?
A: 5.13 ± 5.4%

Q: What about the “maximal % inhibition of viability” value (UT-SCC-81 [10]; [18]) of the same compound?
A: 11.2 ± 3.1%

Q: And the “maximal % inhibition of viability” value (UT-SCC-81 [10]; [19])?
A: 6.5 ± 2.2%

Q: What about the “maximal % inhibition of viability” value (UT-SCC-44 [11]; [20]) of the same compound?
A: 12.5 ± 9.3%

Q: And the “maximal % inhibition of viability” value (UT-SCC-44 [11]; [21])?
A: 13.2 ± 23%

Q: What about the “maximal % inhibition of viability” value (UT-SCC-44 [11]; [17]) of the same compound?
A: 13.7 ± 2.4%

Q: And the “maximal % inhibition of viability” value (UT-SCC-44 [11]; [18])?
A: 12.8 ± 4.1%

Q: What about the “maximal % inhibition of viability” value (UT-SCC-44 [11]; [19]) of the same compound?
A: 16.8 ± 4.5%

Q: What about the “maximal % inhibition of viability” value (UT-SCC-42B [12]; [20]) of the same compound?
A: 12.9 ± 6%

Q: And the “maximal % inhibition of viability” value (UT-SCC-42B [12]; [17])?
A: 10.9 ± 6.9%

Q: And the “maximal % inhibition of viability” value (UT-SCC-42B [12]; [18])?
A: 6.13 ± 1.8%

Q: What about the “maximal % inhibition of viability” value (UT-SCC-42B [12]; [19]) of the same compound?
A: 1.67 ± 0.57%

Q: And the “maximal % inhibition of viability” value (UT-SCC-73 [13]; [20])?
A: 11.8 ± 3.4%

Q: And the “maximal % inhibition of viability” value (UT-SCC-73 [13]; [21])?
A: 40.1 ± 8.9%

Q: What about the “maximal % inhibition of viability” value (UT-SCC-73 [13]; [17]) of the same compound?
A: 9.33 ± 2.9%

Q: What about the “maximal % inhibition of viability” value (UT-SCC-73 [13]; [18]) of the same compound?
A: 8.23 ± 2.8%

Q: What about the “maximal % inhibition of viability” value (UT-SCC-73 [13]; [19]) of the same compound?
A: 1.63 ± 0.76%

Q: What about the “maximal % inhibition of viability” value (UT-SCC-24B [14]; [20]) of the same compound?
A: 77.4 ± 0.93%

Q: What about the “maximal % inhibition of viability” value (UT-SCC-24B [14]; [21]) of the same compound?
A: 83.8 ± 1.4%

Q: What about the “maximal % inhibition of viability” value (UT-SCC-24B [14]; [17]) of the same compound?
A: 78.6 ± 1.1%

Q: What about the “maximal % inhibition of viability” value (UT-SCC-24B [14]; [18]) of the same compound?
A: 78.2 ± 1.9%

Q: What about the “maximal % inhibition of viability” value (UT-SCC-24B [14]; [19]) of the same compound?
A: 76.2 ± 2.5%

Q: What about the “maximal % inhibition of viability” value (UT-SCC-40 [15]; [20]) of the same compound?
A: 18.2 ± 15%

Q: And the “maximal % inhibition of viability” value (UT-SCC-40 [15]; [21])?
A: 8.93 ± 7.8%

Q: And the “maximal % inhibition of viability” value (UT-SCC-40 [15]; [17])?
A: 9.4 ± 3.6%

Q: And the “maximal % inhibition of viability” value (UT-SCC-40 [15]; [18])?
A: 7.2 ± 4.8%

Q: And the “maximal % inhibition of viability” value (UT-SCC-40 [15]; [19])?
A: 2.4 ± 2.4%

Q: What about the “maximal % inhibition of viability” value (UT-SCC-42A [16]; [20]) of the same compound?
A: 0.767 ± 1.3%

Q: What about the “maximal % inhibition of viability” value (UT-SCC-42A [16]; [21]) of the same compound?
A: 6.03 ± 5.7%

Q: What about the “maximal % inhibition of viability” value (UT-SCC-42A [16]; [17]) of the same compound?
A: 9.57 ± 4.9%

Q: What about the “maximal % inhibition of viability” value (UT-SCC-42A [16]; [18]) of the same compound?
A: 4.37 ± 2.7%

Q: And the “maximal % inhibition of viability” value (UT-SCC-42A [16]; [19])?
A: 8.8 ± 3.1%
